Experimental data as given in patent publication US20230017045A1, “PYRIDINE AND PYRIMIDINE CARBOXYLATE HERBICIDES AND METHODS OF USE THEREOF” (Dow AgroSciences LLC, priority 2017, published 2023).

What follows are compounds tested on test plant species (assay: Post-emergent herbicidal activity test (greenhouse, foliar spray, visual growth reduction)). Details: post-emergence, 336 h, ECHCG: barnyardgrass (Echinochloa crus-galli), 140 g ai/ha, 14 days after application, read-out: Visual Growth Reduction (%) 14 Days After Application, ECHCG.
Format: in vivo
Procedure, shortened: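 Plants grown in greenhouse (15 h photoperiod, 23-29° C day/22-28° C night) to first or second true leaf stage were sprayed overhead with compound in acetone/water/isopropanol/DMSO/crop oil/X-77 carrier at 187 L/ha. Injury was scored visually after 14 d on a 0-100% scale versus solvent-blank and untreated controls.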

| Compound | pest or weed control at 140 g/ha |
| --- | --- |
| COC(=O)c1nc(-c2ccc(OS(=O)(=O)C(F)(F)F)cc2Cl)ccc1Cl [F364, methyl 3-chloro-6-(2-chloro-4-(((trifluoromethyl)sulfonyl)oxy)phenyl)picolinate] | 0 to 29% |
| COC(=O)c1nc(-c2ccc3c(c2)C(F)(F)OC(F)(F)O3)c(F)cc1Cl [F204, Methyl 3-chloro-5-fluoro-6-(2,2,4,4-tetrafluoro-4H-benzo[d][1,3]dioxin-6-yl)picolinate] | 0 to 29% |

Same assay, conditions: post-emergence, 336 h, IPOHE: ivy-leaf morning glory (Ipomoea hederacea), 140 g ai/ha, 14 days after application, read-out: Visual Growth Reduction (%) 14 Days After Application, IPOHE

| Compound | pest or weed control at 140 g/ha |
| --- | --- |
| COC(=O)c1nc(-c2ccc(OS(=O)(=O)C(F)(F)F)cc2Cl)ccc1Cl [F364, methyl 3-chloro-6-(2-chloro-4-(((trifluoromethyl)sulfonyl)oxy)phenyl)picolinate] | 85 to 94% |
| COC(=O)c1nc(-c2ccc3c(c2)C(F)(F)OC(F)(F)O3)c(F)cc1Cl [F204, Methyl 3-chloro-5-fluoro-6-(2,2,4,4-tetrafluoro-4H-benzo[d][1,3]dioxin-6-yl)picolinate] | 30 to 44% |

Same assay, conditions: post-emergence, 336 h, KCHSC: kochia (Bassia scoparia), 140 g ai/ha, 14 days after application, read-out: Visual Growth Reduction (%) 14 Days After Application, KCHSC

| Compound | pest or weed control at 140 g/ha |
| --- | --- |
| COC(=O)c1nc(-c2ccc(OS(=O)(=O)C(F)(F)F)cc2Cl)ccc1Cl [F364, methyl 3-chloro-6-(2-chloro-4-(((trifluoromethyl)sulfonyl)oxy)phenyl)picolinate] | 0 to 29% |
| COC(=O)c1nc(-c2ccc3c(c2)C(F)(F)OC(F)(F)O3)c(F)cc1Cl [F204, Methyl 3-chloro-5-fluoro-6-(2,2,4,4-tetrafluoro-4H-benzo[d][1,3]dioxin-6-yl)picolinate] | 0 to 29% |

Same assay, conditions: post-emergence, 336 h, ORYSA: rice (Oryza sativa), 140 g ai/ha, 14 days after application, read-out: Visual Growth Reduction (%) 14 Days After Application, ORYSA

| Compound | pest or weed control at 140 g/ha |
| --- | --- |
| COC(=O)c1nc(-c2ccc(OS(=O)(=O)C(F)(F)F)cc2Cl)ccc1Cl [F364, methyl 3-chloro-6-(2-chloro-4-(((trifluoromethyl)sulfonyl)oxy)phenyl)picolinate] | 0 to 29% |
| COC(=O)c1nc(-c2ccc3c(c2)C(F)(F)OC(F)(F)O3)c(F)cc1Cl [F204, Methyl 3-chloro-5-fluoro-6-(2,2,4,4-tetrafluoro-4H-benzo[d][1,3]dioxin-6-yl)picolinate] | 0 to 29% |

Same assay, conditions: post-emergence, 336 h, SETFA: giant foxtail (Setaria faberi), 140 g ai/ha, 14 days after application, read-out: Visual Growth Reduction (%) 14 Days After Application, SETFA

| Compound | pest or weed control at 140 g/ha |
| --- | --- |
| COC(=O)c1nc(-c2ccc(OS(=O)(=O)C(F)(F)F)cc2Cl)ccc1Cl [F364, methyl 3-chloro-6-(2-chloro-4-(((trifluoromethyl)sulfonyl)oxy)phenyl)picolinate] | 60 to 74% |
| COC(=O)c1nc(-c2ccc3c(c2)C(F)(F)OC(F)(F)O3)c(F)cc1Cl [F204, Methyl 3-chloro-5-fluoro-6-(2,2,4,4-tetrafluoro-4H-benzo[d][1,3]dioxin-6-yl)picolinate] | 0 to 29% |

Same assay, conditions: post-emergence, 336 h, SORVU: grain sorghum (Sorghum vulgare), 140 g ai/ha, 14 days after application, read-out: Visual Growth Reduction (%) 14 Days After Application, SORVU

| Compound | pest or weed control at 140 g/ha |
| --- | --- |
| COC(=O)c1nc(-c2ccc(OS(=O)(=O)C(F)(F)F)cc2Cl)ccc1Cl [F364, methyl 3-chloro-6-(2-chloro-4-(((trifluoromethyl)sulfonyl)oxy)phenyl)picolinate] | 85 to 94% |
| COC(=O)c1nc(-c2ccc3c(c2)C(F)(F)OC(F)(F)O3)c(F)cc1Cl [F204, Methyl 3-chloro-5-fluoro-6-(2,2,4,4-tetrafluoro-4H-benzo[d][1,3]dioxin-6-yl)picolinate] | 0 to 29% |

Same assay, conditions: post-emergence, 336 h, STEME: common chickweed (Stellaria media), 140 g ai/ha, 14 days after application, read-out: Visual Growth Reduction (%) 14 Days After Application, STEME

| Compound | pest or weed control at 140 g/ha |
| --- | --- |
| COC(=O)c1nc(-c2ccc(OS(=O)(=O)C(F)(F)F)cc2Cl)ccc1Cl [F364, methyl 3-chloro-6-(2-chloro-4-(((trifluoromethyl)sulfonyl)oxy)phenyl)picolinate] | 0 to 29% |
| COC(=O)c1nc(-c2ccc3c(c2)C(F)(F)OC(F)(F)O3)c(F)cc1Cl [F204, Methyl 3-chloro-5-fluoro-6-(2,2,4,4-tetrafluoro-4H-benzo[d][1,3]dioxin-6-yl)picolinate] | 0 to 29% |

Same assay, conditions: post-emergence, 336 h, TRZAS: wheat, spring (Triticum aestivum), 140 g ai/ha, 14 days after application, read-out: Visual Growth Reduction (%) 14 Days After Application, TRZAS

| Compound | pest or weed control at 140 g/ha |
| --- | --- |
| COC(=O)c1nc(-c2ccc(OS(=O)(=O)C(F)(F)F)cc2Cl)ccc1Cl [F364, methyl 3-chloro-6-(2-chloro-4-(((trifluoromethyl)sulfonyl)oxy)phenyl)picolinate] | 0 to 29% |
| COC(=O)c1nc(-c2ccc3c(c2)C(F)(F)OC(F)(F)O3)c(F)cc1Cl [F204, Methyl 3-chloro-5-fluoro-6-(2,2,4,4-tetrafluoro-4H-benzo[d][1,3]dioxin-6-yl)picolinate] | 0 to 29% |

Same assay, conditions: post-emergence, 336 h, blackgrass (Alopecurus myosuroides), 14 Days After Application, 140 g ai/ha, read-out: Visual Growth Reduction (%) ALOMY

| Compound | pest or weed control at 140 g/ha |
| --- | --- |
| COC(=O)c1nc(-c2ccc(OS(=O)(=O)C(F)(F)F)cc2Cl)ccc1Cl [F364, methyl 3-chloro-6-(2-chloro-4-(((trifluoromethyl)sulfonyl)oxy)phenyl)picolinate] | 0 to 29% |
| COC(=O)c1nc(-c2ccc3c(c2)C(F)(F)OC(F)(F)O3)c(F)cc1Cl [F204, Methyl 3-chloro-5-fluoro-6-(2,2,4,4-tetrafluoro-4H-benzo[d][1,3]dioxin-6-yl)picolinate] | 0 to 29% |

Same assay, conditions: post-emergence, 336 h, canada thistle (Cirsium arvense), 14 Days After Application, 140 g ai/ha, read-out: Visual Growth Reduction (%) CIRAR

| Compound | pest or weed control at 140 g/ha |
| --- | --- |
| COC(=O)c1nc(-c2ccc(OS(=O)(=O)C(F)(F)F)cc2Cl)ccc1Cl [F364, methyl 3-chloro-6-(2-chloro-4-(((trifluoromethyl)sulfonyl)oxy)phenyl)picolinate] | 60 to 74% |
| COC(=O)c1nc(-c2ccc3c(c2)C(F)(F)OC(F)(F)O3)c(F)cc1Cl [F204, Methyl 3-chloro-5-fluoro-6-(2,2,4,4-tetrafluoro-4H-benzo[d][1,3]dioxin-6-yl)picolinate] | 0 to 29% |

Same assay, conditions: post-emergence, 336 h, crabgrass (Digitaria sanguinalis), 14 Days After Application, 140 g ai/ha, read-out: Visual Growth Reduction (%) DIGSA

| Compound | pest or weed control at 140 g/ha |
| --- | --- |
| COC(=O)c1nc(-c2ccc(OS(=O)(=O)C(F)(F)F)cc2Cl)ccc1Cl [F364, methyl 3-chloro-6-(2-chloro-4-(((trifluoromethyl)sulfonyl)oxy)phenyl)picolinate] | 75 to 84% |
| COC(=O)c1nc(-c2ccc3c(c2)C(F)(F)OC(F)(F)O3)c(F)cc1Cl [F204, Methyl 3-chloro-5-fluoro-6-(2,2,4,4-tetrafluoro-4H-benzo[d][1,3]dioxin-6-yl)picolinate] | 0 to 29% |

Same assay, conditions: post-emergence, 336 h, lambsquarters (Chenopodium album), 14 Days After Application, 140 g ai/ha, read-out: Visual Growth Reduction (%) CHEAL

| Compound | pest or weed control at 140 g/ha |
| --- | --- |
| COC(=O)c1nc(-c2ccc(OS(=O)(=O)C(F)(F)F)cc2Cl)ccc1Cl [F364, methyl 3-chloro-6-(2-chloro-4-(((trifluoromethyl)sulfonyl)oxy)phenyl)picolinate] | 75 to 84% |
| COC(=O)c1nc(-c2ccc3c(c2)C(F)(F)OC(F)(F)O3)c(F)cc1Cl [F204, Methyl 3-chloro-5-fluoro-6-(2,2,4,4-tetrafluoro-4H-benzo[d][1,3]dioxin-6-yl)picolinate] | 0 to 29% |

Same assay, conditions: post-emergence, 336 h, redroot pigweed (Amaranthus retroflexus), 14 Days After Application, 140 g ai/ha, read-out: Visual Growth Reduction (%) AMARE

| Compound | pest or weed control at 140 g/ha |
| --- | --- |
| COC(=O)c1nc(-c2ccc(OS(=O)(=O)C(F)(F)F)cc2Cl)ccc1Cl [F364, methyl 3-chloro-6-(2-chloro-4-(((trifluoromethyl)sulfonyl)oxy)phenyl)picolinate] | 60 to 74% |
| COC(=O)c1nc(-c2ccc3c(c2)C(F)(F)OC(F)(F)O3)c(F)cc1Cl [F204, Methyl 3-chloro-5-fluoro-6-(2,2,4,4-tetrafluoro-4H-benzo[d][1,3]dioxin-6-yl)picolinate] | 0 to 29% |

Same assay, conditions: post-emergence, 336 h, wild oat (Avena fatua), 14 Days After Application, 140 g ai/ha, read-out: Visual Growth Reduction (%) AVEFA

| Compound | pest or weed control at 140 g/ha |
| --- | --- |
| COC(=O)c1nc(-c2ccc(OS(=O)(=O)C(F)(F)F)cc2Cl)ccc1Cl [F364, methyl 3-chloro-6-(2-chloro-4-(((trifluoromethyl)sulfonyl)oxy)phenyl)picolinate] | 0 to 29% |
| COC(=O)c1nc(-c2ccc3c(c2)C(F)(F)OC(F)(F)O3)c(F)cc1Cl [F204, Methyl 3-chloro-5-fluoro-6-(2,2,4,4-tetrafluoro-4H-benzo[d][1,3]dioxin-6-yl)picolinate] | 0 to 29% |

Same assay, conditions: post-emergence, 336 h, yellow nutsedge (Cyperus esculentus), 14 Days After Application, 140 g ai/ha, read-out: Visual Growth Reduction (%) CYPES

| Compound | pest or weed control at 140 g/ha |
| --- | --- |
| COC(=O)c1nc(-c2ccc(OS(=O)(=O)C(F)(F)F)cc2Cl)ccc1Cl [F364, methyl 3-chloro-6-(2-chloro-4-(((trifluoromethyl)sulfonyl)oxy)phenyl)picolinate] | 0 to 29% |
| COC(=O)c1nc(-c2ccc3c(c2)C(F)(F)OC(F)(F)O3)c(F)cc1Cl [F204, Methyl 3-chloro-5-fluoro-6-(2,2,4,4-tetrafluoro-4H-benzo[d][1,3]dioxin-6-yl)picolinate] | 0 to 29% |
